Experimental data as given in patent US12516058B2, “Small-molecule compounds for controlling endosomal toll-like receptors and therapeutic agent for autoimmune diseases using same” (priority 2020, dated 2026).
“Also recorded” adds a separate entry of the source.

Assays:
TLR2/6 = target: T1, TLR2/6 (Mus musculus, UniProt Q9EPW9+Q9QUN7); experiment: TNF-α secretion ELISA after FSL-1 in RAW 264.7 cells; format: cell-based
T1 construct: endogenous in cells; host or cells: RAW 264.7
Experimental: In order to determine the inhibitory activities of the test-ligand, RAW 264.7 cells were pretreated with each candidate compound for 1 hour, then treated with Pam3CSK4 (synthetic triacyl lipopeptide; TLR1/2, Invitrogen), FSL-1 (synthetic diacyl lipoprotein, TLR2/6, 100 ng/ml), lipopolysaccharide (LPS, TLR4, Sigma Aldrich), imiquimod (IMQ, TLR7, Invitrogen), and ODN2395 (type C CpG repeat motif DNA oligo(5′-[…]-3), TLR9, Bioneer) ligand for 4 hours, and treated with poly I:C (I:C repeat motif double-stranded RNA, TLR3, Invitrogen) and TL8-506 (TLR8, Invitrogen) showing delayed reactivity for 24 hours. After activation of TLR, the supernatant was diluted in an appropriate ratio so as to measure within the standard dose range, transferred to a pre-coated 96-well assay plate, and then treated with mouse TNF-alpha secretion level in accordance with the manufacturer's instructions using a mouse-TNF-alpha ELISA-kit (Invitrogen).
In order to determine the inhibitory activities of SK41, SK50, SK58 and SK64 on various TLR signaling pathways, RAW 264.7 cells were cultured along with each compound and then stimulated with different TLR agonists. The TLR agonists used herein were Pam3CSK4 (TLR1/2), FSL-1 (TLR2/6), LPS (TLR4) and FLA-ST (TLR5) as cell surface TLRs, and poly I:C (TLR3) and TL8-506 (TLR8) as endosomal TLRs.

TLR9 = target: T2, TLR9 (Mus musculus, UniProt Q9EQU3); experiment: TNF-α secretion ELISA after TLR9 agonist ODN2395 in RAW 264.7 cells; format: cell-based; conditions: for inhibitory activity against TLR9 (level of TNF-α secretion): SK21 to SK82 at 0.5 μM or 2 μM, ODN2395 0.5 μM; for inhibitory activity against TLR9 activation (TNF-α secretion): SK01 and structural derivatives, inhibitor 1 h, then ODN2395 4 h
T2 construct: endogenous in cells; host or cells: RAW 264.7
T2 sequence (Q9EQU3 26-1032): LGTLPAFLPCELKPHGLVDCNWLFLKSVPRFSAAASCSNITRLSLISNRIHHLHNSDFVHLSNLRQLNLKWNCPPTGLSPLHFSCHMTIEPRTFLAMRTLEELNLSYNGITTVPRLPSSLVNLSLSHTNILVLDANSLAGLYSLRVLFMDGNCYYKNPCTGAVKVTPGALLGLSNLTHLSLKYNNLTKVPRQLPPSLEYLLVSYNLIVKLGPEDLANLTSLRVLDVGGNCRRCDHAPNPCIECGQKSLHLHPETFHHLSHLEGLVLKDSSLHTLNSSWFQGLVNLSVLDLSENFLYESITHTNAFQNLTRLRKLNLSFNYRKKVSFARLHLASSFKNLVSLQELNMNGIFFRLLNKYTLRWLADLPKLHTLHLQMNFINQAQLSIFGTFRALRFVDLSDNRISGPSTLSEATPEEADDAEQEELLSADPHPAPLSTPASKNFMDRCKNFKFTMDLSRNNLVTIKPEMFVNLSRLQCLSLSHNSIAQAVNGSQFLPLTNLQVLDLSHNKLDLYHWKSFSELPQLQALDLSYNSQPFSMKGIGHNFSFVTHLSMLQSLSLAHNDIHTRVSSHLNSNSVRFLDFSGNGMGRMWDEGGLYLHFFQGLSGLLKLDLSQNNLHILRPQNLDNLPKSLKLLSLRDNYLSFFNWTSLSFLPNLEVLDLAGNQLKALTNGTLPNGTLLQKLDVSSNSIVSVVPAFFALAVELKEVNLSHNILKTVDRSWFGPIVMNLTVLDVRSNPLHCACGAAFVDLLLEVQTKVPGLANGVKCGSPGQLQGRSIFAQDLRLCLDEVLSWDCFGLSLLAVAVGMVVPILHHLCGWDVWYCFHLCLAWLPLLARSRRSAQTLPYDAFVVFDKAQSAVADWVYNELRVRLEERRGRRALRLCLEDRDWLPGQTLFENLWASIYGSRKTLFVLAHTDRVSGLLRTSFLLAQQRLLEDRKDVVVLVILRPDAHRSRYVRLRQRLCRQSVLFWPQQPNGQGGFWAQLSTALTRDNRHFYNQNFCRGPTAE

T1 sequence (Q9QUN7 25-784): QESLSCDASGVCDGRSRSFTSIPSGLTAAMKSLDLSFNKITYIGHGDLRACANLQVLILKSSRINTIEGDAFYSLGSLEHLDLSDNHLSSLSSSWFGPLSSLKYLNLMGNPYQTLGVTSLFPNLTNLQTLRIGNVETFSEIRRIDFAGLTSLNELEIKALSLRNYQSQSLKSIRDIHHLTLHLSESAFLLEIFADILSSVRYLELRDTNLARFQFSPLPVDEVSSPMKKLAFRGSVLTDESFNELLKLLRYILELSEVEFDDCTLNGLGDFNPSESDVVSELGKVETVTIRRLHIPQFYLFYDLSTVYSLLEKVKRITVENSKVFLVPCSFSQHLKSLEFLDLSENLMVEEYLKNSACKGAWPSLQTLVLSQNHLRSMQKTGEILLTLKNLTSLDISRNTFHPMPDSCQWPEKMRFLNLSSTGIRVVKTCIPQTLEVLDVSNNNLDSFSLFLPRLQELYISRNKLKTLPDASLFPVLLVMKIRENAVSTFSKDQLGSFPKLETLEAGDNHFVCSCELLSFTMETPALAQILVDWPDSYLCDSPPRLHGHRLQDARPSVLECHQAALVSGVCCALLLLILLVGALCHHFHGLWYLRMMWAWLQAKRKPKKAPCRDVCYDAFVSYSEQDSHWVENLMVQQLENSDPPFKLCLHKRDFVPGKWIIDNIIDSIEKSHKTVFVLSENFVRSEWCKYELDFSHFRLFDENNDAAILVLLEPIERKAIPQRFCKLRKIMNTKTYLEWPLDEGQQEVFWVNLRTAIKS
T1 sequence (Q9EPW9 28-795): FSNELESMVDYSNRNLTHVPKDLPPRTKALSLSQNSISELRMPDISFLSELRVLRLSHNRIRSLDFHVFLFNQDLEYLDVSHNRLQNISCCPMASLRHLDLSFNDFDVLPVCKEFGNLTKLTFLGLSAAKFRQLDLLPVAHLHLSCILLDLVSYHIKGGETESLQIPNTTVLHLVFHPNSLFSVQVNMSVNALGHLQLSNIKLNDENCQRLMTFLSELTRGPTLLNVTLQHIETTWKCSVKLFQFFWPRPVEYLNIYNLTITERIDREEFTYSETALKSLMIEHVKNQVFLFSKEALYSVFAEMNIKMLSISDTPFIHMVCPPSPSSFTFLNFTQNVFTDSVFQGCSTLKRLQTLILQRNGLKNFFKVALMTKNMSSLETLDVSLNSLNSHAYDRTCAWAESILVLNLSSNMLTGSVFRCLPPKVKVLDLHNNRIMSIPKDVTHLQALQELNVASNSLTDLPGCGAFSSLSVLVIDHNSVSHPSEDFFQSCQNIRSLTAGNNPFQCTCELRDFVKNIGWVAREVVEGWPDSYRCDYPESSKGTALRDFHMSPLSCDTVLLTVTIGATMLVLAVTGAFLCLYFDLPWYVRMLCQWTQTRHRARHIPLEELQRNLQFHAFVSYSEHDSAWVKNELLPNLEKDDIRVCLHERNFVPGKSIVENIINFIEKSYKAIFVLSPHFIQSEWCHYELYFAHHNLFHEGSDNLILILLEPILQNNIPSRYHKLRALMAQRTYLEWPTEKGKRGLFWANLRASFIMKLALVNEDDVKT

SMILES	inhibitory activity against cell surface TLR2/6 (TNF-α secretion) (TLR2/6)	inhibitory activity against TLR9 (level of TNF-α secretion) (TLR9)	inhibitory activity against TLR9 activation (TNF-α secretion) (TLR9)
Cc1ccc2c(c1)c1c(N)c3c(nc1n2CCCN(C)C)CCCC3 [SK58, 6-(3-(dimethylamino)propyl)-9-methyl-2,3,4,6-tetrahydro-1H-indolo[2,3-b]quinolin-11-amine]	did not exhibit a specific inhibitory activity; also recorded: no inhibitory activities	significant inhibitory activity; also recorded: significantly reduced	
Cc1c(C)n(CCN(C)C)c2nc3c(c(N)c12)CCCCC3 [SK01, 1-(2-(dimethylamino)ethyl)-2,3-dimethyl-1,5,6,7,8,9-hexahydrocyclohepta[b]pyrrolo[3,2-e]pyridin-4-amine]			inhibitory ability for TLR7/TLR9 activation was verified; also recorded: specifically inhibit
COc1ccc2c(c1)c1c(N)c3c(nc1n2CCCN(C)C)CCCC3 [SK50, 6-(3-(dimethylamino)propyl)-9-methoxy-2,3,4,6-tetrahydro-1H-indolo[2,3-b]quinolin-11-amine]	did not exhibit a specific inhibitory activity; also recorded: no inhibitory activities	significant inhibitory activity; also recorded: significantly reduced	
Cc1cc2c(N)c3c(nc2n1CCCN(C)C)CCCCCC3 [SK41, 1-(3-(dimethylamino)propyl)-2-methyl-5,6,7,8,9,10-hexahydro-1H-cycloocta[b]pyrrolo[3,2-e]pyridin-4-amine]	did not exhibit a specific inhibitory activity; also recorded: no inhibitory activities	significant inhibitory activity; also recorded: significantly reduced	
COC(=O)c1ccc2c(c1)c1c(N)c3c(nc1n2CCCN(C)C)CCCC3 [SK64, Methyl 11-amino-6-(3-(dimethylamino)propyl)-2,3,4,6-tetrahydro-1H-indolo[2,3-b]quinolin-9-carboxylate]	did not exhibit a specific inhibitory activity; also recorded: no inhibitory activities	significant inhibitory activity; also recorded: significantly reduced	
Cc1c(C)n(CCCN(C)C)c2nc3c(c(N)c12)CCCCC3 [SK16, 1-(3-(dimethylamino)propyl)-2,3-dimethyl-1,5,6,7,8,9-hexahydrocyclohepta[b]pyrrolo[3,2-e]pyridin-4-amine]			potent inhibitor; also recorded: best inhibitory activity among the structural analogues of SK01; also recorded: specifically inhibit
